The text below walks through data of PubChem BioAssay AID328 (DTP/NCI, 2004).

The subject of the assay is BDF1 mice, P388 leukemia ip, median survival T/C. In words: NCI In Vivo Anticancer Drug Screen. Data for tumor model P388 Leukemia (intraperitoneal) in B6D2F1 (BDF1) mice. Particulars: endpoint: median survival time, higher = longer survival. Summed up:
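Transplantable tumour in mice; compound vs vehicle dosing; survival scored; ratio of treated to control reported.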

[1] abbreviates: dose: 25.0 mg/kg/injection, schedule: Q01DX009 (ip), vehicle: saline with Tween-80.
Setting [2] is: dose: 50.0 mg/kg/injection, schedule: Q01DX009 (ip), vehicle: saline with Tween-80.
Where [3] appears, read: dose: 100.0 mg/kg/injection, schedule: Q04DX003 (ip), vehicle: saline with Tween-80.
The mark [4] stands for this setting: dose: 200.0 mg/kg/injection, schedule: Q01DX009 (ip), vehicle: saline with Tween-80.
The mark [5] stands for this setting: dose: 200.0 mg/kg/injection, schedule: Q04DX003 (ip), vehicle: saline with Tween-80.
Setting [6] is: dose: 100.0 mg/kg/injection, schedule: Q01DX009 (ip), vehicle: saline with Tween-80.
Setting [7] is: dose: 100.0 mg/kg/injection, schedule: Q04DX003 (ip), vehicle: Klucel (hydroxypropylcellulose) (HPC).
The mark [8] stands for this setting: dose: 200.0 mg/kg/injection, schedule: Q04DX003 (ip), vehicle: Klucel (hydroxypropylcellulose) (HPC).
Setting [9] is: dose: 50.0 mg/kg/injection, schedule: Q01DX001 (ip), vehicle: saline with Tween-80.
The mark [10] stands for this setting: dose: 100.0 mg/kg/injection, schedule: Q01DX001 (ip), vehicle: saline with Tween-80.
Where [11] appears, read: dose: 200.0 mg/kg/injection, schedule: Q01DX001 (ip), vehicle: saline with Tween-80.
The mark [12] stands for this setting: dose: 300.0 mg/kg/injection, schedule: Q01DX009 (ip), vehicle: saline with Tween-80.
[13] abbreviates: dose: 400.0 mg/kg/injection, schedule: Q01DX009 (ip), vehicle: saline with Tween-80.
[14] abbreviates: dose: 400.0 mg/kg/injection, schedule: Q04DX003 (ip), vehicle: saline with Tween-80.
Where [15] appears, read: dose: 500.0 mg/kg/injection, schedule: Q01DX009 (ip), vehicle: saline with Tween-80.
Setting [16] is: dose: 25.0 mg/kg/injection, schedule: Q01DX009 (ip), vehicle: Klucel (hydroxypropylcellulose) (HPC).
Where [17] appears, read: dose: 50.0 mg/kg/injection, schedule: Q01DX009 (ip), vehicle: Klucel (hydroxypropylcellulose) (HPC).
Setting [18] is: dose: 100.0 mg/kg/injection, schedule: Q01DX009 (ip), vehicle: Klucel (hydroxypropylcellulose) (HPC).
[19] abbreviates: dose: 400.0 mg/kg/injection, schedule: Q04DX003 (ip), vehicle: Klucel (hydroxypropylcellulose) (HPC).

Where “and” joins values, the source holds several entries; their conditions need not be identical. Identical values can stand only once. Toxic doses and inconclusive results are not listed.

As to `S=c1[nH]cc2cnccn12`, the T/C is 110 % of control under setting [1]; 115 % of control under setting [2]; 100 % of control under setting [3]; 105 % of control under setting [4]; 110 % of control under setting [5].

Take `CC[N+](C)(C)c1ncnc2nc[nH]c12`: the T/C reads like this: (dose: 25.0 mg/kg/injection, schedule: Q01DX009 (ip), vehicle: saline) 91 % of control; (dose: 50.0 mg/kg/injection, schedule: Q01DX009 (ip), vehicle: saline) 95 % of control; (dose: 100.0 mg/kg/injection, schedule: Q01DX009 (ip), vehicle: saline) 87 % of control and 91 % of control; (dose: 100.0 mg/kg/injection, schedule: Q04DX003 (ip), vehicle: saline) 104 % of control; (dose: 200.0 mg/kg/injection, schedule: Q01DX009 (ip), vehicle: saline) 95 % of control; (dose: 200.0 mg/kg/injection, schedule: Q04DX003 (ip), vehicle: saline) 104 % of control.

In the case of `CC(C)(C)C(=O)CC(O)(C(F)(F)Cl)C(F)(F)Cl`, the T/C was 100 % of control under setting [6] and 100 % of control under setting [4].

Consider `Nc1ncnc2c1ncn2C1OC(COP(=O)(O)O)C(O)C1O` (centres undefined), for which the T/C reads like this: (dose: 18.8 mg/kg/injection, schedule: Q03HX016 (ip), vehicle: saline) 121 % of control; (dose: 100.0 mg/kg/injection, schedule: Q03HX016 (ip), vehicle: saline) 157 % of control; (dose: 100.0 mg/kg/injection, schedule: Q03HX024 (ip), vehicle: saline) 151 % of control; (dose: 150.0 mg/kg/injection, schedule: Q03HX016 (ip), vehicle: saline) 169 % of control; (dose: 150.0 mg/kg/injection, schedule: Q03HX024 (ip), vehicle: saline) 178 % of control.

For the compound `CCOC1=NCCCCCCC1`, the T/C is, setting by setting: under setting [2], 98 % of control; under setting [6], 97 % of control; under setting [4], 99 % of control.

As for `COc1ccc2c(c1OC)C(=O)NC2=O`, the T/C was 108 % of control (dose: 50.0 mg/kg/injection, schedule: Q01DX008 (ip), vehicle: Klucel (hydroxypropylcellulose) (HPC)); 100 % of control (dose: 50.0 mg/kg/injection, schedule: Q04DX003 (ip), vehicle: Klucel (hydroxypropylcellulose) (HPC)); 88 % of control (dose: 100.0 mg/kg/injection, schedule: Q01DX008 (ip), vehicle: Klucel (hydroxypropylcellulose) (HPC)); 100 % of control under setting [7]; 90 % of control under setting [8].

As to `COc1ccc2c(c1)CCC1=C2C=C[P+]1(C)C`, the T/C runs as follows: (dose: 12.5 mg/kg/injection, schedule: Q01DX009 (ip), vehicle: saline with Tween-80) 92 % of control; under setting [1], 111 % of control.

As for `O=C1OI(OI2OC(=O)c3ccccc32)c2ccccc21` (tested in a mixture with another compound), the T/C reads like this: under setting [9], 101 % of control; under setting [10], 101 % of control and 103 % of control; under setting [11], 108 % of control and 120 % of control; (dose: 400.0 mg/kg/injection, schedule: Q01DX001 (ip), vehicle: saline with Tween-80) 117 % of control and 124 % of control.

In the case of `Cc1cc(=O)[nH]c2c1ccc1[nH]c(=O)cc(C)c12`, the T/C is 91 % of control (dose: 100.0 mg/kg/injection, schedule: Q01DX001 (ip), vehicle: Klucel (hydroxypropylcellulose) (HPC)) and 87 % of control (dose: 200.0 mg/kg/injection, schedule: Q01DX001 (ip), vehicle: Klucel (hydroxypropylcellulose) (HPC)).

Consider `O=c1c2ccccc2[nH]c2cc3c(=O)c4ccccc4[nH]c3cc12`, for which the T/C runs as follows: under setting [2], 99 % of control; under setting [6], 95 % of control; under setting [4], 93 % of control.

As for `CC1CN1P(=S)(Oc1ccccc1)N1CC1C` (centres undefined), the T/C is 150 % of control under setting [4]; 122 % of control (dose: 264.0 mg/kg/injection, schedule: Q01DX009 (ip), vehicle: saline with Tween-80); 155 % of control under setting [12]; 150 % of control under setting [13].

Turning to `Cc1nc(OCc2ccccc2)c(C(=O)OCc2ccccc2)nc1C`, the T/C under setting [1] was 100 % of control; the T/C under setting [2] was 106 % of control and 121 % of control; the T/C under setting [6] was 106 % of control and 108 % of control; the T/C under setting [3] was 94 % of control; the T/C under setting [4] was 100 % of control and 101 % of control; the T/C under setting [5] was 91 % of control. The T/C is 97 % of control and 124 % of control under setting [13]; 100 % of control under setting [14]; 106 % of control under setting [15].

Take `C[C@@H]1C[C@@]2(C)[C@@H](CC[C@@H]3[C@@H]2CC[C@]2(C)[C@@H](OC4CCCCO4)CC[C@@H]32)CC1=O` (some centres undefined): the T/C by setting is: under setting [16], 88 % of control; under setting [17], 92 % of control; under setting [18], 88 % of control and 100 % of control; under setting [7], 86 % of control and 91 % of control; (dose: 200.0 mg/kg/injection, schedule: Q01DX009 (ip), vehicle: Klucel (hydroxypropylcellulose) (HPC)) 87 % of control and 100 % of control; under setting [8], 87 % of control and 95 % of control. Also, the T/C is, setting by setting: (dose: 400.0 mg/kg/injection, schedule: Q01DX009 (ip), vehicle: Klucel (hydroxypropylcellulose) (HPC)) 105 % of control; under setting [19], 90 % of control and 91 % of control.

`Cc1ccc2c(c1)C(=O)CCS2`: the T/C is 100 % of control under setting [7], 100 % of control under setting [8] and 100 % of control under setting [19].

As to `CC(=O)[C@H]1CC[C@H]2[C@@H]3CCC4=CC(=O)CC[C@]4(C)[C@H]3CC[C@]12C`, the T/C reads like this: (dose: 100.0 mg/kg/injection, schedule: Q01DX009 (sc), vehicle: steriod suspending solution) 104 % of control; (dose: 100.0 mg/kg/injection, schedule: Q04DX003 (sc), vehicle: steriod suspending solution) 100 % of control; (dose: 200.0 mg/kg/injection, schedule: Q01DX009 (sc), vehicle: steriod suspending solution) 87 % of control; (dose: 200.0 mg/kg/injection, schedule: Q04DX003 (sc), vehicle: steriod suspending solution) 105 % of control; (dose: 400.0 mg/kg/injection, schedule: Q01DX009 (sc), vehicle: steriod suspending solution) 87 % of control; (dose: 400.0 mg/kg/injection, schedule: Q04DX003 (sc), vehicle: steriod suspending solution) 110 % of control.

Take `CCCCCCCCCCCCCCCCCOc1ccc2ccccc2c1`: the T/C reads like this: (dose: 25.0 mg/kg/injection, schedule: Q01DX001 (ip), vehicle: saline sonified) 100 % of control; (dose: 50.0 mg/kg/injection, schedule: Q01DX001 (ip), vehicle: saline sonified) 100 % of control; (dose: 100.0 mg/kg/injection, schedule: Q01DX001 (ip), vehicle: saline sonified) 90 % of control.

Regarding `CC(C)c1ccc(NC(=O)Nc2cccc3ccccc23)cc1`, the T/C is, setting by setting: under setting [9], 95 % of control; under setting [10], 109 % of control; under setting [11], 100 % of control.

Turning to `O=C1OC(c2ccccc2)=C/C1=C/c1ccccc1O`, the T/C runs as follows: under setting [1], 109 % of control; under setting [2], 91 % of control; (dose: 50.0 mg/kg/injection, schedule: Q04DX003 (ip), vehicle: saline with Tween-80) 104 % of control; under setting [6], 97 % of control; under setting [3], 109 % of control; under setting [4], 97 % of control and 118 % of control. In addition, the T/C is, setting by setting: under setting [5], 116 % of control; under setting [12], 108 % of control; under setting [13], 113 % of control and 124 % of control; under setting [14], 114 % of control; under setting [15], 122 % of control.

With `CN(C)CC(=O)c1ccc(O)c(O)c1`, the T/C (dose: 300.0 mg/kg/injection, schedule: Q01DX010 (ip), vehicle: saline) was 150 % of control.

Regarding `c1coc(-c2ncnc3c2Cc2ccccc2-3)c1`, the T/C was 100 % of control under setting [16]; 118 % of control under setting [17]; 109 % of control under setting [18]; 91 % of control (dose: 150.0 mg/kg/injection, schedule: Q01DX009 (ip), vehicle: Klucel (hydroxypropylcellulose) (HPC)).
